From patent publication US10377770B2 (Novartis AG, priority 2015, dated 2019) come the findings set out here.

SMILES strings stand for the structures. pIC50: −log10 of the molar value.

This assay concerns the target C-Raf FL (full length CRAF with Y340E and Y341E activating mutations, co-expressed with h14-3-3 zeta) (Homo sapiens (Human), UniProt P04049, Y340E/Y341E). Description: In vitro Raf activity determination, AlphaScreen p-MEK readout, c-Raf (C-Raf FL). In kind it is biochemical. The settings on record: c-Raf approximately 4 nM, ATP 1 μM, pre-incubation 60 minutes, reaction 1 hour. The essentials: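 Full-length C-Raf (~4 nM) pre-incubated 60 min at room temperature with compound and kinase-dead biotinylated MEK1 (~10 nM) in Tris pH 7.5, 15 mM MgCl2, BSA, DTT. Reaction started with 1 μM ATP and run 1 h at room temperature. Phospho-MEK detected by AlphaScreen with anti-p-MEK antibody.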
On the technique in general: Bead proximity is the source of the signal in Alpha formats.

Sequence of C-Raf FL (full length CRAF with Y340E and Y341E activating mutations, co-expressed with h14-3-3 zeta) (P04049 whole entry Y340E/Y341E): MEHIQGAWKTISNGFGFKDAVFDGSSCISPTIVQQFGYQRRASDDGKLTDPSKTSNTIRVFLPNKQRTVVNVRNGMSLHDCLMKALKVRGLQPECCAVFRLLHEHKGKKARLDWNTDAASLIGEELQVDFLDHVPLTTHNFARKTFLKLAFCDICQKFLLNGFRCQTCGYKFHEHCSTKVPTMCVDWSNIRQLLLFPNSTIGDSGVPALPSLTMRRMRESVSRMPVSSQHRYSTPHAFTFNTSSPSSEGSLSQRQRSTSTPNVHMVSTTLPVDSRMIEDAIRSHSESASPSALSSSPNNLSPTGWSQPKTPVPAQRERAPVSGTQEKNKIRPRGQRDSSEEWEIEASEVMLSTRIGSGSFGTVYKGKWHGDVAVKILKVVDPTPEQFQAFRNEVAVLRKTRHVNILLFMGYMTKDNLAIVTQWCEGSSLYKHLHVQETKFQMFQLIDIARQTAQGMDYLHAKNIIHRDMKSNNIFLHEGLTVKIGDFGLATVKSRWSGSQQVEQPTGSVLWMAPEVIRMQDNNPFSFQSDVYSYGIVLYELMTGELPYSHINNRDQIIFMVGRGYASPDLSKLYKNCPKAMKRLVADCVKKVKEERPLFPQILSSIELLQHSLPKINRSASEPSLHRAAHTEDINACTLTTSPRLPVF
Sequence of C-Raf FL (full length CRAF with Y340E and Y341E activating mutations, co-expressed with h14-3-3 zeta) (P63104 whole entry partner): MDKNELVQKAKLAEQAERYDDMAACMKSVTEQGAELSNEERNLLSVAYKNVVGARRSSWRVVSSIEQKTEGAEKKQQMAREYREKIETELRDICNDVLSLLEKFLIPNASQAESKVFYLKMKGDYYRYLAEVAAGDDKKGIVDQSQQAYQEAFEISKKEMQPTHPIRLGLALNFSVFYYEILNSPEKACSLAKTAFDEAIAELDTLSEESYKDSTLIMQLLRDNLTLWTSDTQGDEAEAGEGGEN

One may read the pIC50 as −log10 of the IC50, conventionally taken in molar units. A higher pIC50 goes with a small IC50. The compound `Cc1ccc(NC(=O)c2ccnc(C(F)(F)F)c2)cc1-c1ccc2c(c1)N1CCOCC1C1(COC1)C2` (racemic) [Example 54, (rac)-N-(4-methyl-3-(2,4,4a,6-tetrahydro-1H-spiro[[1,4]oxazino[4,3-a]quinoline-5,3′-oxetan]-9-yl)phenyl)-2-(trifluoromethyl)isonicotinamide] showed a negative logarithm of the IC50 (pIC50) of 10.89.

For the compound `Cc1ccc(NC(=O)c2ccnc(C(C)(F)F)c2)cc1-c1cnc2c(c1)N1CCOC[C@H]1[C@@H](CO)C2` [Example 492, 2-(1,1-difluoroethyl)-N-(3-((4aR,5S)-5-(hydroxymethyl)-1,2,4,4a,5,6-hexahydro-[1,4]oxazino[4,3-a][1,5]naphthyridin-9-yl)-4-methylphenyl)iso-nicotinamide], the pIC50 is 9.70.

The compound `Cc1ccc(NC(=O)c2ccnc(C(C)(F)F)c2)cc1-c1ccc2c(c1)N1CCOC[C@H]1[C@](CO)(CF)C2` [Example 410, 2-(1,1-difluoroethyl)-N-(3-((4aR,5R)-5-(fluoromethyl)-5-(hydroxymethyl)-1,2,4,4a,5,6-hexahydro-[1,4]oxazino[4,3-a]quinolin-9-yl)-4-methylphenyl)isonicotinamide] showed a pIC50 of 9.30. The same measure for `Cc1ccc(NC(=O)c2ccnc(C(C)(C)C#N)c2)cc1-c1cnc2c(c1)N1CCOC[C@H]1C[C@H]2O` [Example 150, 2-(2-cyanopropan-2-yl)-N-(3-((4aR,6R)-6-hydroxy-1,2,4,4a,5,6-hexahydro-[1,4]oxazino[4,3-a][1,5]naphthyridin-9-yl)-4-methylphenyl)isonicotinamide]: 10.10; for `CCN1C[C@@H]2CCOCCN2c2cc(-c3cc(NC(=O)c4ccnc(C(F)(F)F)c4)ccc3C)cnc2C1=O` [Example 504, (S)-N-(3-(7-ethyl-8-oxo-1,2,4,5,5a,6,7,8-octahydropyrido[2′, 3′:6,7][1,4]diazepino [1,2-d][1,4]oxazepin-11-yl)-4-methylphenyl)-2-(trifluoromethyl)iso-nicotinamide]: 7.81.

Take `Cc1ncc(NC(=O)c2ccnc(C(C)(F)F)c2)cc1-c1ccc2c(c1)N1CCOC[C@H]1[C@@](C)(C#N)C2` (racemic) [Example 89, (rac)-N-(5-(5-cyano-5-methyl-1,2,4,4a,5,6-hexahydro-[1,4]oxazino[4,3-a]quinolin-9-yl)-6-methylpyridin-3-yl)-2-(1,1-difluoroethyl)isonicotinamide]: the negative logarithm of the IC50 (pIC50) is 10.44. The same measure for `Cc1ccc(NC(=O)c2ccnc(C(F)(F)F)c2)cc1-c1cnc2c(c1)N1CCOC[C@H]1[C@](C)(C#N)C2` [Example 377, N-(3-((4aR,5R)-5-cyano-5-methyl-1,2,4,4a,5,6-hexahydro-[1,4]oxazino[4,3-a][1,5]naphthyridin-9-yl)-4-methylphenyl)-2-(trifluoromethyl)isonicotinamide]: 9.05; for `Cc1ccc(NC(=O)c2ccnc(C(F)(F)F)c2)cc1-c1cnc2c(c1)N1CCOC[C@H]1C1(COC1)C2` [Example 154, (R)-N-(4-methyl-3-(1′,2′,4′,4a′-tetrahydro-6′H-spiro[oxetane-3,5′-[1,4]oxazino[4,3-a][1,5]naphthyridin]-9′-yl)phenyl)-2-(trifluoromethyl)isonicotinamide]: 10.20. The same measure for `Cc1ccc(NC(=O)c2ccnc(C(C)(C)C)c2)cc1-c1ccc2c(c1)N1CCOC[C@H]1[C@](F)(CF)C2` [Example 474, 2-(tert-butyl)-N-(3-((4aS,5S)-5-fluoro-5-(fluoromethyl)-1,2,4,4a,5,6-hexahydro-[1,4]oxazino[4,3-a]quinolin-9-yl)-4-methylphenyl)iso-nicotinamide]: 8.26; for `Cc1ccc(NC(=O)c2ccnc(C(F)(F)F)c2)cc1-c1ccc2c(c1)N1CCOCC1C(CO)(CO)C2` (racemic) [Example 49, (rac)-N-(3-(5,5-bis(hydroxymethyl)-1,2,4,4a,5,6-hexahydro-[1,4]oxazino[4,3-a]quinolin-9-yl)-4-methylphenyl)-2-(trifluoromethyl)isonicotinamide]: 10.68.

In turn, `Cc1ncc(NC(=O)c2ccnc(C(C)(F)F)c2)cc1-c1ccc2c(c1)N1CCOC[C@H]1[C@](F)(CO)C2` [Example 84, 2-(1,1-difluoroethyl)-N-(5-((4aS,5S)-5-fluoro-5-(hydroxymethyl)-1,2,4,4a,5,6-hexahydro-[1,4]oxazino[4,3-a]quinolin-9-yl)-6-methylpyridin-3-yl)isonicotinamide] had a negative-log IC50 (pIC50) of 9.00. This pIC50 lies 1.68 log units lower than the previous one. The same measure for `Cc1ncc(NC(=O)c2cccc(C(F)(F)F)c2)cc1-c1cnc2c(c1)C1(C)CCOCCC1C(=O)N2CCO` (single isomer, unassigned) [Example 359, N-(5-((5a,11b-trans)-7-(2-hydroxyethyl)-11b-methyl-6-oxo-1,2,4,5,5 a,6,7,11b-octahydrooxepino[4,5-c][1,8]naphthyridin-10-yl)-6-methylpyridin-3-yl)-3-(trifluoromethyl)benzamide]: 9.52; for `Cc1ccc(NC(=O)c2ccnc(C(C)(F)F)c2)cc1-c1cnc2c(c1)N1CCOC[C@H]1C(F)(F)[C@@H]2O` (racemic) [Example 163, rac-cis-N-(3-(5,5-difluoro-6-hydroxy-1,2,4,4a,5,6-hexahydro-[1,4]oxazino[4,3-a][1,5]naphthyridin-9-yl)-4-methylphenyl)-2-(1,1-difluoroethyl)isonicotinamide]: 10.70. The compound `Cc1ccc(NC(=O)c2ccnc(C(F)(F)F)c2F)cc1-c1cnc2c(c1)C1(C)CCOCCC1C(=O)N2CCO` (single isomer, unassigned) [Example 354, 3-fluoro-N-(3-((5a,11b-trans)-7-(2-hydroxyethyl)-11b-methyl-6-oxo-1,2,4,5,5a,6,7,11b-octahydrooxepino[4,5-c][1,8]naphthyridin-10-yl)-4-methylphenyl)-2-(trifluoromethyl)isonicotinamide] showed a pIC50 of 9.52. The same measure for `Cc1ccc(NC(=O)c2ccnc(C(C)(F)F)c2)cc1-c1cnc2c(c1)N1CCOC[C@@H]1C[C@@H]2O` [Example 109, 2-(1,1-difluoroethyl)-N-(3-((4aS,6S)-6-hydroxy-1,2,4,4a,5,6-hexahydro-[1,4]oxazino[4,3-a][1,5]naphthyridin-n-9-yl)-4-methylphenyl)isonicotinamide]: 11.24; for `COC1CC2COCCN2c2cc(-c3cc(NC(=O)c4ccnc(C(C)(F)F)c4)ccc3C)cnc21` (stereo not drawn) [Example 33, 2-(1,1-difluoroethyl)-N-(3-(6-methoxy-1,2,4,4a,5,6-hexahydro-[1,4]oxazino[4,3-a][1,5]naphthyridin-9-yl)-4-methylphenyl)isonicotinamide]: 11.09; for `CCN1C(=O)Cc2nncn2-c2cc(-c3cc(NC(=O)c4ccnc(C(C)(F)F)c4)ccc3C)cnc21` (racemic) [Example 234, 2-(1,1-difluoroethyl)-N-(3-(6-ethyl-5-oxo-5,6-dihydro-4H-pyrido[2,3-b][1,2,4]triazolo[4,3-d][1,4]diazepin-9-yl)-4-methylphenyl)isonicotinamide]: 8.89.

Compound `CCN1C(=O)Cc2nncn2-c2cc(-c3cc(NC(=O)c4ccnc(C(F)(F)F)c4)ccc3C)cnc21` [Example 237, N-(3-(6-ethyl-5-oxo-5,6-dihydro-4H-pyrido[2,3-b][1,2,4]triazo1o[4,3-d][1,4]diazepin-9-yl)-4-methylphenyl)-2-(trifluoromethyl) isonicotinamide] showed a pIC50 of 8.89.
